Measured values taken from patent US11667949B2, “Reporter construct and biosensor for interferon second messenger 2-5A” (The Trustees of Princeton University, priority 2018, dated 2023).
Like-named read-outs stand apart in the source and are kept apart here. Numbered stars: 1 amine (or outer) side, 2 acyl side, 3 side chain; on linkers, the order of the positions; unused ones are H or OH. Bridge positions count the residues as written; N and C are the ends. Square brackets hold non-standard residues; d marks the D form. Peptide text beside a SMILES is read from it. I, II: the chains in the order shown. Actinocin(9to1) = Cc1c2oc3c(C)ccc(C(=O)[*:1])c3nc-2c(C(=O)[*:2])c(N)c1=O; NMeV = CN[C@H](C(=O)O)C(C)C; Sar = CNCC(=O)O

How the values were obtained:
RNase L = biological target: T1, RNase L (Homo sapiens, UniProt Q05823); conditions: cited from earlier work
T1 sequence (Q05823 1-741): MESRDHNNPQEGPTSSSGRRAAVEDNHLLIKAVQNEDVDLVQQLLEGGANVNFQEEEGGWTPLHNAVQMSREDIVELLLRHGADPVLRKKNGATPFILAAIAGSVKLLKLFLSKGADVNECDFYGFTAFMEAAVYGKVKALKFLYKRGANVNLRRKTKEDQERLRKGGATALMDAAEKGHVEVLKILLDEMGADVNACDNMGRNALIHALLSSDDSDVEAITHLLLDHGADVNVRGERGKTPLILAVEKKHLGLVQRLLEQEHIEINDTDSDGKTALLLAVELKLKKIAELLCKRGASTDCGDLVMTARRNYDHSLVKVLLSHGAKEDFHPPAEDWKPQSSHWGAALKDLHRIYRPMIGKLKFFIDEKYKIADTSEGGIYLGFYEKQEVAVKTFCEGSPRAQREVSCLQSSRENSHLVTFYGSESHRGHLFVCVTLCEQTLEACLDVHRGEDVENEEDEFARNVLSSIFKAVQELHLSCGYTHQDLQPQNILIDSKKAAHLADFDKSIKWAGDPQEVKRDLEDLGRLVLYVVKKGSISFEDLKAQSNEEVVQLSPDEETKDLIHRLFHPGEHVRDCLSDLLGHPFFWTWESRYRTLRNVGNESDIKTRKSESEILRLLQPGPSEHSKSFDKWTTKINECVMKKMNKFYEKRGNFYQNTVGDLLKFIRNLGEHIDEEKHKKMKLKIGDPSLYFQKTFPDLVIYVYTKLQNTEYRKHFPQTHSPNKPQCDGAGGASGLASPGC

A549 cells [1] = assay: Nascent protein synthesis by puromycin pulse labeling; type: cell-based, human
Description: Ribopuromycilation and ^35S labeling to monitor nascent translation: To generate puromycin-tagged nascent peptides, human cells were treated with 0.1-1 μg/mL of poly-IC for times specified on the figures, after which the growth media was supplemented with 10 μg/mL puromycin (Invitrogen). Puromycin pulse lasted for 5 min. Cells were trypsinized and harvested in NuPAGE LDS sample buffer for western blot analyses. Proteins were separated by 10% BisTris PAGE (NuPAGE), and transferred on PVDF membranes (Life Technologies). The membrane was stained with Ponceau to normalize for sample loading, then washed and blocked with 5% non-fat dry milk in TBST buffer. The membranes were probed with 1:1000 mouse anti-puromycin antibody (EMD Millipore) that binds to de novo synthesized proteins, followed by horseradish peroxidase-conjugated goat anti-mouse secondary antibody (1:10,000, Jackson ImmunoResearch). Metabolic labeling with ^35S was conducted using the following procedure. After cell treatment with poly-IC, media was changed to methionine-free RPMI+10% FBS supplemented with 11 μCi EASY TAG™ EXPRESS35S Protein Labeling Mix (Perkin Elmer). Cellular proteins were resolved by 10% BisTris PAGE (NuPAGE) and analyzed by phosphorimaging.

A549 cells [2] = assay: Live cell 2-5A measurements in A549 cells stably expressing FLAG-V6 biosensor; type: cell-based, human; conditions: pre-treatment before poly-IC
Description: Live cell 2-5A measurements in stable cell lines expressing V6 or V6-Y312A reporters: A549 or HeLa cells stably expressing V6 or V6-Y312A control reporters were seeded at a density of 1·10^4 /well on TC-treated, clear flat bottom white 96-well plates. Before transfection with poly-IC, cells were pre-treated with 100 μM D-luciferin ethyl ester (1% DMSO) (f/c) (Marker Gene Technologies). After one hour of substrate pre-treatment, a poly-IC/lipofectamine complex (1 μg/mL Poly-IC+0.5 μL Lipofectamine 2000 in a final volume of 100 μL) was added to the cells along with a second addition of 100 μM D-luciferin and HEPES (pH 7.5; 20 mM f/c). Dilutions of poly-IC were made by diluting the poly-IC/lipofectamine complexes. Luminescence measurements were taken in repeat-mode using plate reader at time intervals shown on the figures. After three hours, fresh D-luciferin ethyl ester (100 μM) was re-supplied at every hour to ensure excess reporter substrate. Luminescence acquisition time was one minute per well. For IFN-β pre-treatment, a dose of 1000 U/mL (f/c) was used 24 hours before poly-IC treatment.

A549 cells [3] = assay: Secreted IFN detection by qPCR in conditioned media; type: cell-based, human
Description: qRT-PCR analysis: Cells were harvested in 350 μL RLT buffer (Qiagen) and RNA was purified according to the RNeasy protocol (Qiagen). cDNA was prepared using oligo-dT and a High Capacity RNA to cDNA kit (Applied Biosystems). qPCR was performed using the Power SYBR green PCR mix in a 96 well format on StepOnePlus qPCR instrument (Life Technologies). qPCR primers used in this work were from Integrated DNA Technologies and are available via the manufacturer if not specifically recited in the Table below.
Secreted IFN detection by qPCR in conditioned media: A549 WT and RNase L knock out (KO) cells in 12-well plates were transfected with 1 μg/mL poly-IC and lipofectamine 2000 for 0.5, 2 or 6 hours. At the end of the time course, cells were washed four times with 1 mL of growth medium (RPMI+10% FBS) to remove residual poly IC. After the washes, fresh 1 mL medium was added and the cells were kept in fresh media for one hour to allow for protein secretion. Treatments of naive cells with conditioned media were done in a separate 12-well plate and using cells seeded 1 day before the analysis. Naïve cell media was replaced with 1 mL of the conditioned medium from above. Cells were grown in the conditioned media for 16 hours and harvested in 300 μL RLT (Qiagen). For pulse-chase experiments in FIG. 9C, 10 μM anisomycin was added 3 hours after poly-IC addition. Anisomycin level was additionally maintained during the last hour allocated for IFN secretion into fresh media.

HeLa cells [4] = assay: Reporter assay in live cells transfected with V6 or Y312A V6 constructs; type: cell-based, human
Description: Reporter assay in live cells: NLS and NES tag sequences cloned in the reporter immediately following the FLAG tag were […] (SEQ ID NO: 4) and […] (SEQ ID NO: 5), respectively. […] These 96 well plates were clear bottom and white for optimum luminescence readings. […] Luminescence acquisition time: 1 minute/well.

HeLa cells [5] = conditions: stable monoclonal HeLa reporter cells
Description: In an additional experiment, HeLa cells were stably transduced with a lentiviral construct containing the reporter. A monoclonal population of reporter expressing cells was then selected by limiting serial dilution. For reporter assay, these monoclonal cells were seeded at a cell density of 2×10^5 cells per well on 96 well plates. After the cells adhered to the plates (in approximately 6 hours), the cells were pre-treated with 100 uM D-luciferin ethyl ester (1% DMSO) (f/c). After one hour of substrate pre-treatment, poly IC-Lipofectamine complexes were added to the cells along with a second addition of 100 uM D-luciferin substrate. Luminescence measurements were taken on Repeated mode in the plate reader: every 15 minutes for the course of three hours. Luminescence acquisition time: 1 minute/well.

HeLa cells [6] = conditions: poly IC 6 hours, <3 kDa flow-through, V6 reporter in vitro
Description: In vitro Luminescence assays: The luminescence reactions contained 20 mM Hepes (pH7.4), 100 mM NaCl, 5 mM MgCl2, 5% (vol/vol) glycerol, 1 mM DTT, 3 mM ATP, 250 uM Coenzyme A hydrate (Sigma Aldrich). After adding specified concentrations of reporter protein and 2-5A (p2-5A3, pA3), D-luciferin, Potassium salt (Gold Biotechnology) was added at a final concentration of 400 uM. The reactions were allowed to stabilize for 2 minutes and immediately after luminescence measurements were taken on a plate reader (Berthold Technologies). Acquisition time for the reaction was set to be 10 seconds.
2-5A extraction: HeLa cells treated for 6 hours with 1 ug/ml polyIC were lysed with RIPA (Thermo Fisher Scientific) buffer along with 0.5 mM PMSF protease inhibitor. The lysate was spun down at 12000 g for 10 minutes at 4° C. The supernatant was passed through a 3 KDa centrifugal filter to collect small nucleic acids. An equivalent amount of RNA from mock or polyIC treated sample was added to the luminescence assay.

2′-5′-linked oligoadenylates [2-5A]
affinity for latent RNase L (RNase L): sub-nanomolar
attenuation of basal cell-wide translation (A549 cells [1]; 2-5A activated RNase L): more than 1,000 fold

Cc1c2oc3c(C)ccc(C(=O)N[C@@H]4C(=O)N[C@H](C(C)C)C(=O)N5CCC[C@H]5C(=O)N(C)CC(=O)N(C)[C@@H](C(C)C)C(=O)O[C@@H]4C)c3nc-2c(C(=O)N[C@@H]2C(=O)N[C@H](C(C)C)C(=O)N3CCC[C@H]3C(=O)N(C)CC(=O)N(C)[C@@H](C(C)C)C(=O)O[C@@H]2C)c(N)c1=O [Actinomycin D] (I: T[dV]P[Sar][NMeV] / II: T[dV]P[Sar][NMeV]; ester I:1-I:C, II:1-II:C; linker I:N-II:N via Actinocin(9to1))
OAS/RNase L activation after pre-treatment with transcription inhibitor (A549 cells [2]): not inhibited

COc1ccc(C[C@H]2NC[C@H](O)[C@H]2OC(C)=O)cc1 [anisomycin]
IFN production (IFN activity in the media) (A549 cells [3]; 10 μM anisomycin added 3 hours after poly-IC, before the IFN response): blocked IFN production
effect on ISG mRNAs (A549 cells [3]; naïve cells, control experiment): mild stimulatory effect

poly-Inosine/poly-Cytidine [poly IC]
2-5A build-up, fold, poly IC treated vs untreated cells (HeLa cells [4]; 30 minutes): 2.4 fold
maximum fold change of reporter (HeLa cells [4]; 3 hours post poly IC treatment): 30 fold
2-5A build-up, fold change with poly IC vs without poly IC (HeLa cells [5]; 30 mins): 3.7 fold
maximum fold change of reporter (HeLa cells [5]; 3.5 hours after poly IC treatment): 28 fold
ISG induction by conditioned media (A549 cells [3]; media of poly I:C-treated WT and RNase L−/− cells, time points beyond translational arrest): two orders of magnitude
stimulation of the reporter by nucleic acids from poly IC treated vs mock treated cells (HeLa cells [6]): roughly 8 fold
global translation (A549 cells [1]; WT A549 cells, before ISG induction): halted global translation
